Three substances from patent US20220213440A1, “DENDRITIC CELL IMMUNOTHERAPY” (BAYLOR COLLEGE OF MEDICINE, priority 2015, published 2022) can be followed below.

Experiment [1] has as its system CD8^+ T-cells. Briefly: In vitro co-culture of loaded mouse DC with splenocytes, T-cell populations. It counts as cell-based. Particulars: loaded H2-DM^−/− DC with wild type syngeneic splenocytes. From the text: FIGS. 1A-F: Concurrent loading of antigenically related MHC Class I and II determinants promote TH1-polarization of mouse DC. […] This effect was abrogated by siRNA knockdown of AIMp1. Antigens were derived from the RAW264.7 cell line. Heterologous Class II antigens were derived from the 4T1 breast cancer cell line. Y-axis: fold change in IL-12p70 secretion from unloaded (UL) DC. […] Top panel: AIMp1 release following homologous loading with RAW264.7 antigenic determinants. Heterologous lysate derived from 4T1. Bottom panel: AIMp1 release following homologous loading with primary SV antigenic determinants. Heterologous lysate derived from primary prostate. […] Shown: sCTLA-4 release following homologous loading with RAW264.7 antigenic determinants. Heterologous lysate derived from 4T1. […] Data shown are indicative of typical AIMp1 knockdown of >70%. […] This effect was abrogated by treatment of homologously-loaded DC with AIMp1 siRNA. Heterologous lysate was primary prostate. […]
FIGS. 3A-G: AIMp1/sCTLA-4 modulation is dependent upon binding of homologous class I and II peptide to MHC. […] (B) Densitometry quantitation of AIMp1/sCTLA-4 ratios of the data depicted in (a) over three independent experiments. […] (Glycine Pair: Class I=SEQ ID NO: 3, Class II=SEQ ID NO: 2; Methionine Pair: Class I=SEQ ID NO: 8, Class II=SEQ ID NO: 9) (F) Densitometric quantitation of the data presented in (e). […]

Experiment [2] deals with H2-DM^−/− DC. Briefly: AIMp1 / sCTLA-4 secretion from H2-DM-/- DC loaded with class I peptide. It is filed as cell-based, mouse. The text has this: FIGS. 3A-G: AIMp1/sCTLA-4 modulation is dependent upon binding of homologous class I and II peptide to MHC. (A) sCTLA-4 (right) and AIMp1 (left) western blots of wild type (top) and H2-DM^−/− (bottom) murine DC culture supernatants following single, homologous, or heterologous loading with SV mRNA and lysate. Representative experiment shown. (B) Densitometry quantitation of AIMp1/sCTLA-4 ratios of the data depicted in (a) over three independent experiments. Top panel: wild type DC. Bottom panel: H2-DM^−/− DC. […] (Glycine Pair: Class I=SEQ ID NO: 3, Class II=SEQ ID NO: 2; Methionine Pair: Class I=SEQ ID NO: 8, Class II=SEQ ID NO: 9) (F) Densitometric quantitation of the data presented in (e). […]
Preparation of Vaccine Materials, Loading of DC, and In vitro CoCulture—Seminal vesicle (SV) and prostate were harvested from 10 week old male mice and immediately frozen at −80° C. […] To generate mRNA, total RNA was isolated from homogenized tissue using Trizol reagent (Life Technologies, Carlsbad, Calif.) according to the manufacturer's instructions, and mRNA was isolated from total RNA using an Oligotex mRNA Maxi Kit (Qiagen, Valencia, Calif.) also according to the manufacturer's instructions. mRNA was quantitated with a Nanodrop spectrophotometer (Thermo Scientific) and integrity was verified by gel electrophoresis. […]

Experiment [3] has as its system sCTLA-4 and AIMp1 secretion from human DC. As to the kind of experiment: sCTLA-4 and AIMp1 western blots of human DC culture supernatants with TLR agonistic stimuli. It counts as cell-based. Particulars: 1 μg/ml, absence of antigenic loading. Background: A western blot detects proteins with antibodies after separation by electrophoresis.
In experiment [4] the test system is AIMp1 and sCTLA-4 secretion from mouse DC. As to the kind of experiment: AIMp1 / sCTLA-4 Western blot of mouse DC culture supernatants. It is filed as cell-based. The following applies: mouse DC (not shown), 1 μg/ml, absence of antigenic loading. From the text:
FIGS. 1A-F: Concurrent loading of antigenically related MHC Class I and II determinants promote TH1-polarization of mouse DC. […] This effect was abrogated by siRNA knockdown of AIMp1. Antigens were derived from the RAW264.7 cell line. Heterologous Class II antigens were derived from the 4T1 breast cancer cell line. Y-axis: fold change in IL-12p70 secretion from unloaded (UL) DC. […] Top panel: AIMp1 release following homologous loading with RAW264.7 antigenic determinants. Heterologous lysate derived from 4T1. Bottom panel: AIMp1 release following homologous loading with primary SV antigenic determinants. Heterologous lysate derived from primary prostate. […] Shown: sCTLA-4 release following homologous loading with RAW264.7 antigenic determinants. Heterologous lysate derived from 4T1. […] Data shown are indicative of typical AIMp1 knockdown of >70%. […] This effect was abrogated by treatment of homologously-loaded DC with AIMp1 siRNA. Heterologous lysate was primary prostate. Y-axis: fold change in total cell count in comparison to unloaded (UL) DC. […]
Quantitation of Western Blot Images—Western blot chemiluminescent signal was detected using a ChemiDoc XRS digital imaging system running Image Lab software Version 2.0.1 (Bio-Rad Laboratories, Hercules, Calif.). All Western blots were quantitated by densitometry of Ponceau S (Sigma-Aldrich) stained membranes. […]

Regarding MRMATPLLM [H-2D^b CLIP], the “CD8^+CD25^+ T cells after coculture” value in experiment [1] is listed as “increase in CD8^+CD25^+ T cells”. In addition, the AIMp1 release entry in experiment [2] (SIINFEKL as control) is given as “Substantial AIMp1 release was observed in a dose-dependent fashion”. The sCTLA-4 secretion entry in experiment [2] (dose-dependent) is listed as “diminution of sCTLA-4 secretion”.
flagellin: the “sCTLA-4 or AIMp1 secretion with TLR agonist” value in experiment [3] is listed as “Neither poly(I:C), LPS, flagellin, nor CpG-ODN altered sCTLA-4 or AIMp1 secretion”; in experiment [4], “Neither poly(I:C), LPS, flagellin, nor CpG-ODN altered sCTLA-4 or AIMp1 secretion”.
Take “polyinosine-polycytidylic acid [poly(I:C)]”: the “sCTLA-4 or AIMp1 secretion with TLR agonist” value in experiment [3] is recorded as “Neither poly(I:C), LPS, flagellin, nor CpG-ODN altered sCTLA-4 or AIMp1 secretion”; in experiment [4], “Neither poly(I:C), LPS, flagellin, nor CpG-ODN altered sCTLA-4 or AIMp1 secretion”.
